Assay results: publication PMC7948948 (The Journal of Biological Chemistry, 2021)
In brackets after ≈: the same amount, converted by molar mass.

Tested on: Mtb pheS–FDAS
Format: cell-based, Mycobacterium tuberculosis

How did the “MIC, pheS–FDAS mutant” value turn out when `O=C(Nc1cccnc1)N1CCC(Cc2cccc(Oc3ccc(C(F)(F)F)cn3)c2)CC1` [PF-3845] was run?
Its value is 40 µM (≈ 18.3 µg/mL).
